We go through two molecules from publication PMC7565406, “BMS-599626, a Highly Selective Pan-HER Kinase Inhibitor, Antagonizes ABCG2-Mediated Drug Resistance” (Cancers, 2020).

Data set [1] deals with T1, ABCG2 (Homo sapiens, UniProt Q9UNQ0).
T1 sequence (Q9UNQ0 1-655): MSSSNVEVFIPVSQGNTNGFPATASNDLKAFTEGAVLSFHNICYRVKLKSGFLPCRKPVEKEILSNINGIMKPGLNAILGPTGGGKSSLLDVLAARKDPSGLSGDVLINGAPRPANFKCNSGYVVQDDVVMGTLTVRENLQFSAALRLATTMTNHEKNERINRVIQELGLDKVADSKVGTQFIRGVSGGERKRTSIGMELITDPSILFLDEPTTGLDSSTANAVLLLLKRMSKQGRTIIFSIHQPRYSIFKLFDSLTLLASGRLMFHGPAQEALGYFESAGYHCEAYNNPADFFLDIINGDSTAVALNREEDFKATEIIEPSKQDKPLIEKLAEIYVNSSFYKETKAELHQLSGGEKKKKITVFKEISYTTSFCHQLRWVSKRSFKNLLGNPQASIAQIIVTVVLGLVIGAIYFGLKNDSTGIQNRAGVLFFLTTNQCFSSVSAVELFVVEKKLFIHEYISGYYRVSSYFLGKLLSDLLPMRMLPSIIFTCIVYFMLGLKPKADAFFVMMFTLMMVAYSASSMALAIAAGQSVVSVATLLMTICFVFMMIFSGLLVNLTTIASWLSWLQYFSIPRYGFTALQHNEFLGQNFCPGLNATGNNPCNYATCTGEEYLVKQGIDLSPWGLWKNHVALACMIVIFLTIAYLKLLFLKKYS
The data set is described as follows: vanadate-sensitive ATPase assay in ABCG2 membrane vesicles; supported by [3H]-mitoxantrone accumulation and efflux in cells. It counts as biochemical. Also noted: membrane vesicles prepared from ABCG2 expressing High-five insect cells.

Data set [2] addresses T1, ABCG2. Description: radiolabelled drug efflux in ABCG2-overexpressing versus parental cells. It counts as cell-based. Also on record: wild-type ABCG2 (R482) in HEK293 cells; NCI-H460/MX20 cells.

As for `Cc1c(NC(=O)OC[C@@H]2COCCN2)cn2ncnc(Nc3ccc4c(cnn4Cc4cccc(F)c4)c3)c12` [BMS-599626, [4-[[1-(3-fluorophenyl)methyl]-1H-indazol5-ylamino]-5-methylpyrrolo [2,1-f][1,2,4]triazin6-yl]carbamic acid, (3S)-3-morpholinylmethyl ester], the “vanadate-sensitive ATPase assay in ABCG2 membrane vesicles; supported by [3H]-mi” value on ABCG2 [1] is 7.6 fold inhibition of ATPase activity at 3 µM. On to `O=C1c2c(O)ccc(O)c2C(=O)c2c(NCCNCCO)ccc(NCCNCCO)c21` [mitoxantrone], for which the “radiolabelled drug efflux in ABCG2-overexpressing versus parental cells” value on ABCG2 [2] was “ABCG2-overexpressing cell lines showed a significantly higher efflux activity compared to parental cell lines”.
